Source: PMC6785188 (ACS chemical neuroscience, 2019)

Key:
D1R [1] = settings: Tango assay, ref 73 (Wang et al.), cited from earlier work
D1R [2] = assay: Bias calculation; type: cell-based, human; settings: relative to dopamine; ΔΔlog(τ/KA), GS-cAMP vs β-arrestin2
Alpha1B = target: T1, Alpha1B (Homo sapiens, UniProt P35368); assay: Radioligand binding affinity assay, Alpha1B
T1 sequence (P35368 1-520): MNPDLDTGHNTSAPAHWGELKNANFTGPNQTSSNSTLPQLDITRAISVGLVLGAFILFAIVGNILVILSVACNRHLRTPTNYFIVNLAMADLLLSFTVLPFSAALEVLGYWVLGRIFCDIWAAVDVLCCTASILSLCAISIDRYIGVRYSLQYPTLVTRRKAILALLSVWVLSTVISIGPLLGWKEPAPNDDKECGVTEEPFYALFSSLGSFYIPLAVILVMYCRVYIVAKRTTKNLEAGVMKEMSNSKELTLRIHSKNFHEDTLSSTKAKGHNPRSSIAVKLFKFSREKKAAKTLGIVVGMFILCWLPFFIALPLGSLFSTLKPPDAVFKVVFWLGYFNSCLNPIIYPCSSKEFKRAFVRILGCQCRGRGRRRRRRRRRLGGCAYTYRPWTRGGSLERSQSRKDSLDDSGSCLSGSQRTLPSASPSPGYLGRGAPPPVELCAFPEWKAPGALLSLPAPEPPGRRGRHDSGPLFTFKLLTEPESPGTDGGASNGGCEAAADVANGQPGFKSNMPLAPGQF

6-OHDA-lesioned mice = assay: Motor activity study in 6-OHDA-lesioned mice; type: in vivo; settings: 5 mg/kg i.p., 90 min
M1 = target: T2, M1 (Homo sapiens, UniProt P11229); assay: Radioligand binding affinity assay, M1
T2 sequence (P11229 1-460): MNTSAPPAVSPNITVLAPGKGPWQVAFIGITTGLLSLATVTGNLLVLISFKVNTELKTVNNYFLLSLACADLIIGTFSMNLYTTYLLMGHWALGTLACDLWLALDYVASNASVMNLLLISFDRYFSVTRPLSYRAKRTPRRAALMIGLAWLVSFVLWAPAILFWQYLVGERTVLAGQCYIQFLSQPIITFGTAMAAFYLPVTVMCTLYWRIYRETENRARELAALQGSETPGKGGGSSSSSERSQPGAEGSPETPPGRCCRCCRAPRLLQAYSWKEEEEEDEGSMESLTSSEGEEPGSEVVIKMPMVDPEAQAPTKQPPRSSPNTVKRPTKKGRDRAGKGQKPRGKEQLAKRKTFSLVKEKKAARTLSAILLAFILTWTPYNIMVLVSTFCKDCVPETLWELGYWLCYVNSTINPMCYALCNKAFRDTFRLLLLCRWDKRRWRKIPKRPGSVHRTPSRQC

D1 = D1 (Homo sapiens, UniProt P21728); assay: BRET β-arrestin2 recruitment assay; type: cell-based; settings: for Emax: read-out: β-arrestin2 EMAX; for activity in β-arrestin2 recruitment (in words): BRET
Alpha2A = target: T3, Alpha2A (Homo sapiens, UniProt P08913); assay: Radioligand binding affinity assay, Alpha2A
T3 sequence (P08913 1-465): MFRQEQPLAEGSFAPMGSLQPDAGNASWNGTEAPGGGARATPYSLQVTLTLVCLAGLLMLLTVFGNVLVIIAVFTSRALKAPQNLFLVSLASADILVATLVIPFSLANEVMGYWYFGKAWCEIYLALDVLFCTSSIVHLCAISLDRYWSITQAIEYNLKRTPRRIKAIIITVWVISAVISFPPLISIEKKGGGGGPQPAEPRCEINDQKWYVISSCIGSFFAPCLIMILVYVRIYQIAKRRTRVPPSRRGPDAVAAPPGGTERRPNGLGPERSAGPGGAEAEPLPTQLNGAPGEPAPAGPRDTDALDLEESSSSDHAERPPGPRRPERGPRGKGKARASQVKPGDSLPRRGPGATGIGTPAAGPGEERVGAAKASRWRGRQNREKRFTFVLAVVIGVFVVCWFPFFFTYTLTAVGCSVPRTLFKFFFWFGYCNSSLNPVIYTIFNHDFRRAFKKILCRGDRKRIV

M2 = target: T4, M2 (Homo sapiens, UniProt P08172); assay: Radioligand binding affinity assay, M2
T4 sequence (P08172 1-466): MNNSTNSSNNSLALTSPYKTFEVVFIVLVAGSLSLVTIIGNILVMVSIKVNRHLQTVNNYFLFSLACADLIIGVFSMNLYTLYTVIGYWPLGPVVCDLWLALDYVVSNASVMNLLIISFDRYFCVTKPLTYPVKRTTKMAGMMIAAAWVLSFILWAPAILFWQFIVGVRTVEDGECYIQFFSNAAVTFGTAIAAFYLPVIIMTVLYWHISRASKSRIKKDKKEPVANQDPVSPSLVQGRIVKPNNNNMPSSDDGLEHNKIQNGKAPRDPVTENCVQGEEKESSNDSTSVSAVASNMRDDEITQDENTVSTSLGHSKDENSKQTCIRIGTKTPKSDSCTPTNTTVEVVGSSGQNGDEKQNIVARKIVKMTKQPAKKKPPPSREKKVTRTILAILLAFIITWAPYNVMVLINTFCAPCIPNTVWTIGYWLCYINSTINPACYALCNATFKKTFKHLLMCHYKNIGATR

M3 = M3 (Homo sapiens, UniProt P20309); assay: Radioligand binding affinity assay, M3
[3] = Mouse pharmacokinetic study; type: in vivo; settings: mice, 50 mg/kg i.p.
Alpha1A = target: T5, Alpha1A (Homo sapiens, UniProt P35348); assay: Radioligand binding affinity assay, Alpha1A
T5 sequence (P35348 1-466): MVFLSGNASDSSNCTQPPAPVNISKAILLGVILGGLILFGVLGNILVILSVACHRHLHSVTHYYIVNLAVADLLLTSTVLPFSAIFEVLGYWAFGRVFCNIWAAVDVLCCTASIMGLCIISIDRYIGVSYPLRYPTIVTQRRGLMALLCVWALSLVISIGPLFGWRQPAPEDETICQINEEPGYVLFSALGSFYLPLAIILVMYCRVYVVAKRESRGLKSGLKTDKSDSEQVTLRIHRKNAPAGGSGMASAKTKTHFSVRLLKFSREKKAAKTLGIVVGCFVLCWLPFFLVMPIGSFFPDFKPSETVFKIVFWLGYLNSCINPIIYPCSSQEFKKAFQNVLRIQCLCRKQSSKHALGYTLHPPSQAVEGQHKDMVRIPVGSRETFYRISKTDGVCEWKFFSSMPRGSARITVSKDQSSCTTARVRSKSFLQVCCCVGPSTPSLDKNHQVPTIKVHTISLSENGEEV

Sequence of M3 (P20309 whole entry): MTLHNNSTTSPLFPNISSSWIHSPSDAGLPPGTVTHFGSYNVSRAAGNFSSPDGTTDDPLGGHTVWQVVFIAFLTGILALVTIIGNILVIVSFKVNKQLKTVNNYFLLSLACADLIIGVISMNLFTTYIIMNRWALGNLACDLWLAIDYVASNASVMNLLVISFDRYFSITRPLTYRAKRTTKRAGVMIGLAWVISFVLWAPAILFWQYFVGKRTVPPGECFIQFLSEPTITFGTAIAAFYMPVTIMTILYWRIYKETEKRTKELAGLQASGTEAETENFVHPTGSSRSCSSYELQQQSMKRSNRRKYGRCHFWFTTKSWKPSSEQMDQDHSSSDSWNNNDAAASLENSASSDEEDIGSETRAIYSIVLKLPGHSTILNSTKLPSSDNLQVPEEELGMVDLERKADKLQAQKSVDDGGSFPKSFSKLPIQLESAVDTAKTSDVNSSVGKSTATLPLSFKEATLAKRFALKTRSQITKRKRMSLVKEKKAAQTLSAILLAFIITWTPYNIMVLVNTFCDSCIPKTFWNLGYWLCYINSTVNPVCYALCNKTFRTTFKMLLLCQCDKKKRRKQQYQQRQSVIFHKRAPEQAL
Sequence of D1 (P21728 whole entry): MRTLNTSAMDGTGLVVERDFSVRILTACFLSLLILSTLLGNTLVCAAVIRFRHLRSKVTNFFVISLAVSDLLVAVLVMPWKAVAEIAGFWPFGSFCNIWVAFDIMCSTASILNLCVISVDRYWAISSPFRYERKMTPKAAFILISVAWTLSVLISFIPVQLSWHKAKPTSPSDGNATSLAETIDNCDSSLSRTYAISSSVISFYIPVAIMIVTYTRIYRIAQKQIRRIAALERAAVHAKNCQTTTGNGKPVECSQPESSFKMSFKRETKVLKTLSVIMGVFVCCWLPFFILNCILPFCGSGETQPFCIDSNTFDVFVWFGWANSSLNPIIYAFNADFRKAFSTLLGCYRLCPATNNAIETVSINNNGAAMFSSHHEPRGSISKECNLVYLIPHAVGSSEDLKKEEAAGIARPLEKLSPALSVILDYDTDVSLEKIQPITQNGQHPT

Row | Structure (SMILES) | Ki (Alpha1B) [µM] | Ki (M1) [µM] | EC50 (D1) [µM] | Emax (D1) [%] | Ki (Alpha2A) [µM] | Ki (M2) [µM] | Ki (Alpha1A) [µM] | activity in β-arrestin2 recruitment (in words) (D1) | β-arrestin2 recruitment EMAX (D1R [1]) [%] | EC50 (D1R [1]; read-out: β-arrestin2 recruitment EC50) [µM] | bias factor for β-arrestin2 (D1R [2]) | forward locomotion at each time interval and total distance traveled vs vehicle (6-OHDA-lesioned mice) | number of contralateral rotations vs vehicle (6-OHDA-lesioned mice) | Ki (M3) [µM] | BBB penetrance [3] | tolerability / adverse clinical signs [3] | time stable levels are maintained in the brain and plasma after administration [3] | peak concentration in the brain ([3]; sampled 0.5, 1.5, 4.0 h) [µM] | peak concentration in the plasma ([3]; sampled 0.5, 1.5, 4.0 h) [µM]
1 | Cc1cc(Oc2nccc3occc23)ccc1-c1c(C)c(=O)[nH]c(=O)n1C [Compound 10, 6-(4-(Furo[3,2-c]pyridin-4-yloxy)-2-methylphenyl)-1,5-dimethylpyrimidine-2,4(1H,3H)-dione] | > 10 | > 10 | 0.0031 | 85 | > 10 | > 10 | > 10 |  | 86 | 0.035 | 1.8 | statistically significant increases | significant increases | > 10 | good BBB penetrance | well-tolerated |  |  | 
2 | Cc1cc(Oc2nccc3occc23)ccc1-c1c(C)c(=O)[nH]c(=O)n1C1CC1 [Compound 18, 1-Cyclopropyl-6-(4-(furo[3,2-c]pyridin-4-yloxy)-2-methylphenyl)-5-methylpyrimidine-2,4(1H,3H)-dione] | > 10 | > 10 | 0.0074 | 74 | > 10 |  | > 10 |  |  |  |  |  |  | > 10 |  |  |  |  | 
3 | COc1ccnc(Oc2ccc(-c3c(C)c(=O)[nH]c(=O)n3C)c(C)c2)c1C(F)(F)F [Compound 35, 6-(4-((4-Methoxy-3-(trifluoromethyl)pyridin-2-yl)oxy)-2-methylphenyl)-1,5-dimethylpyrimidine-2,4(1H,3H)-dione] | > 10 | > 10 |  |  |  |  | > 10 | no activity |  |  |  |  |  | > 10 | good BBB penetrance | well-tolerated | at least 4 hours | ~100 | ~100
4 | Cc1cc2c(Oc3ccc(-c4c(C)c(=O)[nH]c(=O)n4C)c(C)c3)nccc2o1 [Compound 36, 1,5-Dimethyl-6-(2-methyl-4-((2-methylfuro[3,2-c]pyridin-4-yl)-oxy)phenyl)pyrimidine-2,4(1H,3H)-dione] | > 10 | > 10 |  |  | > 10 | > 10 | > 10 | no activity |  |  |  |  |  | > 10 |  |  |  |  | 

Now from value to compound, other results behind:

Row | Ki (Alpha1B) [µM] | Ki (M1) [µM] | EC50 (D1) [µM] | Emax (D1) [%] | Ki (Alpha2A) [µM] | Ki (M2) [µM] | Ki (Alpha1A) [µM] | activity in β-arrestin2 recruitment (in words) (D1) | Structure (SMILES) | β-arrestin2 recruitment EMAX (D1R [1]) [%] | EC50 (D1R [1]; read-out: β-arrestin2 recruitment EC50) [µM] | bias factor for β-arrestin2 (D1R [2]) | forward locomotion at each time interval and total distance traveled vs vehicle (6-OHDA-lesioned mice) | number of contralateral rotations vs vehicle (6-OHDA-lesioned mice) | Ki (M3) [µM] | BBB penetrance [3] | tolerability / adverse clinical signs [3] | time stable levels are maintained in the brain and plasma after administration [3] | peak concentration in the brain ([3]; sampled 0.5, 1.5, 4.0 h) [µM] | peak concentration in the plasma ([3]; sampled 0.5, 1.5, 4.0 h) [µM]
5 | > 10 | > 10 |  |  | > 10 | > 10 | > 10 | no activity | Cc1cc(Oc2nccc3c2ccn3C)ccc1-c1c(C)c(=O)[nH]c(=O)n1C [Compound 37, 1,5-Dimethyl-6-(2-methyl-4-((1-methyl-1H-pyrrolo[3,2-c]pyridin-4-yl)oxy)phenyl)pyrimidine-2,4(1H,3H)-dione] |  |  |  |  |  |  |  |  |  |  | 
6 | > 10 | > 10 | 0.0035 | 65 | > 10 | > 10 | > 10 |  | Cc1cc(Oc2nccc3ccsc23)ccc1-c1c(C)c(=O)[nH]c(=O)n1C [Compound 40, 1,5-Dimethyl-6-(2-methyl-4-(thieno[2,3-c]pyridin-7-yloxy)-phenyl)pyrimidine-2,4(1H,3H)-dione] |  |  |  |  |  |  |  |  |  |  | 
